The source of these data is patent US7232837B2, “Stereoisomers with high affinity for adrenergic receptors” (McNeil-PPC, Inc., priority 1999, dated 2007).

In series [1] the target is α2 adrenergic receptors. In words: Alpha-2 binding, 125iodoclonidine, canine brain (frontal cortex) membranes. Details: species or system canine (mongrel dogs). The note with it: canine brain membranes; for IC50: inhibition of specific p-iodoclonidine binding; for Ki: p-iodoclonidine. The protocol:
BRAIN ALPHA-2 RECEPTORS: Membranes of mongrel dogs were harvested from the canine frontal cortex and prepared as described for lung except that the final membrane protein concentration was adjusted to 0.5 mg/ml.
ALPHA-2 BINDING ^125IODOCLONIDINE. […] Nonspecific binding was determined in separate incubations in the presence of 10 μM phentolamine. The final concentration of p-iodoclonidine was 44–45 pM in competition studies and between 50 pM and 10 nM in saturation experiments. Bound and free p-^125iodoclonidine were separated and the bound quantified as described above for the ICYP assays. […] BETA-2 BINDING, ^125IODOCYANOPINDOLOL (^125ICYP). […] Nonspecific binding was determined in separate incubations in the presence of 2 μM d,l-propranolol. Each experimental point was determined in triplicate. […] Incubations were terminated as described above for the α1 assays. Filters were placed into polyethylene tubes and the bound ligand was determined by gamma spectrometry (Sano et al., 1993).
All data were analyzed with the aid of microcomputer nonlinear curve fitting programs (PRISM 2.0, Graphpad Software, San Diego Calif.).
The receptors resident in each of the three membrane preparations were evaluated by standard saturation analysis following the addition of increasing concentrations of the appropriate radioligand. […] The radio ligand added for subsequent α2-displacement assays was adjusted to evaluate only the high affinity receptor. Contributions from p-iodoclonidine binding to imidazoline receptors in the α2-displacement assay were evaluated with epinephrine.
The variable, I, is the concentration of tracer added and the variable, Kd, is the equilibrium dissociation constant empirically determined for this receptor population.

Series [2] relates to Dog. In words: Dosage which raised mean arterial pressure 10%, dog. The class given is in vivo.
Series [3] has as its system Rat. In words: Dosage which raised mean arterial pressure 10%, rat. The class given is in vivo.
Series [4] relates to Sprague Dawley rats. Kind of series: Nasal airway pressure in histamine-challenged rats.
Series [5] relates to Sprague Dawley rats. Kind of series: Nasal airway pressure in non-histamine-challenged rats. As to conditions: for Mean Decrease in Nasal Airway Pressure: rats, i.v., ± SEM.

Broadly, the IC50 is the concentration needed to halve the response being measured. High values mean a need for much substance, low ones inhibition by little substance. Usually Ki stands for the dissociation constant of the complex between target and ligand, obtained from inhibition or displacement.

In series [1], (−)-norpseudoephedrine had an IC50 of 10 µM and an inhibitory constant (Ki) of 8 µM.
Turning to `CNC[C@@H](O)c1cccc(O)c1` [(+)-Phenylephrine, (+)-phenylephrine], the “Dosage of Enantiomer which raised mean arterial pressure 10%, Dog” value in series [2] is 80 µg/kg. Also, the “Dosage of Enantiomer which raised mean arterial pressure 10%, Rat” value in series [3] worked out at 24 µg. The “nasal airway pressure, Post Drug” value in series [4] (100% dose i.v. after histamine challenge) turned out to be 5.5 ± 0.5 mm water; in series [5] (100% dose i.v. (jugular vein), non-histamine-challenged rats), 8 ± 0.3 mm H2O. Besides, the “nasal airway pressure, % Change” value is −35.2 ± 2.5% in series [4] (100% dose i.v. after histamine challenge, post drug vs post histamine) and −12.2 ± 3.1% in series [5] (100% dose i.v., non-histamine-challenged rats, post drug vs control). Moreover, the “nasal airway pressure, Post Histamine” value in series [4] (after intranasal histamine 50 mM, before drug) was determined as 8.7 ± 1.1 mm water. The “nasal airway pressure, Control” value was found to be 6.5 ± 0.4 mm water in series [4] (before histamine and drug); 9 ± 0.4 mm H2O in series [5] (before drug, non-histamine-challenged rats). For the same compound, the “Mean Decrease in Nasal Airway Pressure” value in series [5] (5% of the dose that increased mean arterial pressure 10%) is reported as −4.00 ± 1.2; in series [5] (10% of the dose that increased mean arterial pressure 10%), −2.5 ± 1.0; in series [5] (25% of the dose that increased mean arterial pressure 10%) it was −4.6 ± 1.4; in series [5] (50% of the dose that increased mean arterial pressure 10%), −10.2 ± 3.9.
In series [1], (+)-norpseudoephedrine had an IC50 of 5 µM and a Ki of 4 µM.
